Laboratory results reported in patent US11339193B2, “CDP protein secretion inhibitors” (KEZAR LIFE SCIENCES, priority 2018, dated 2022).
Read-outs that look alike come from different tables or passages of the source. Numbered stars: 1 amine (or outer) side, 2 acyl side, 3 side chain; on linkers, the order of the positions; unused ones are H or OH. Square brackets hold non-standard residues; d marks the D form. Peptide text beside a SMILES is read from it. NMeAla(5-Cl-benzothien-3-yl) = CN[C@@H](Cc1csc2ccc(Cl)cc12)C(=O)O; X19 = CN([C@@H](Cc1cn(Cc2ccc(Cl)cc2)c2ccccc12)C(=O)[*:2])[*:1]; X14 = CC#CCn1cc(C[C@@H](C(=O)[*:2])N(C)[*:1])c2ccccc21; X15 = CCn1cc(C[C@@H](C(=O)[*:2])N(C)[*:1])c2ccccc21; X16 = CN([C@@H](Cc1csc2c(Cl)cccc12)C(=O)[*:2])[*:1]; Ala(1-cyclohexenyl) = N[C@@H](CC1=CCCCC1)C(=O)O; Butanoyl(2R-oxy,4-CN) = N#CCC[C@@H](O)C(=O)O; X23 = CN([C@@H](CC1=CCCCC1)C(=O)[*:2])[*:1]; Abu(4,4,4-F3) = N[C@@H](CC(F)(F)F)C(=O)O; X12 = O=C([C@H](CC1=CCCC1)N[*:1])[*:2]; NMeL = CN[C@@H](CC(C)C)C(=O)O; NMeA = CN[C@@H](C)C(=O)O

Assays:
Format in all cases: cell-based
[1] = system: NCI-H929 multiple myeloma cell line; assay: H929 assay (cell viability, Celltiter-Glo); details: Homo sapiens, read-out: H929 EC50
Procedure, shortened: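 Cells plated in RPMI 1640 with 10% FBS and 2 mM glutamine, treated with compound dilutions in DMSO/media. Incubation 48 h at 37° C, 5% CO2. Viability from luciferase luminescence signal.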

[2] = system: Prl-ss+10aa/Gaussia Luciferase; assay: Prl-ss-Gluc assay (constitutively active or 24 hr Dox inducible)
Text: Constitutively Active Prl-ss-Gluc Assay
Flp-In 293 T-REx™ cells were transfected with pcDNA™5/FRT plasmid inserted with cDNA encoding Gaussia Luciferase fused to the 3′ end of cDNA encoding Prl signal sequence plus 10 amino acids (N-[…]-C) (SEQ ID NO:4). Transfected cells were selected for resistance to the selectable markers Hygromycin and Blasticidin to create a stable cell line that constitutively expressed the Prlss+10aa/Gaussia Luciferase fusion protein. The day before assay, cells were trypsinized and plated in 384-well tissue culture plates. The next day, culture media was removed from the wells and replaced with fresh media. Compound dilutions in DMSO/media were added to the wells and incubated at 37° C., 5% CO2.
24 hr Dox Inducible Prl-ss-Gluc Assay
Flp-In 293 T-REx™ cells were transfected with pcDNA™5/FRT/TO plasmid inserted with cDNA encoding Gaussia Luciferase fused to the 3′ end of cDNA encoding Prl signal sequence plus 10 amino acids (N-[…]-C) (SEQ ID NO:5). Transfected cells were selected for resistance to the selectable markers Hygromycin and Blasticidin to create a stable cell line that contained the Prl-ss+10aa/Gaussia Luciferase cDNA insert whose expression was regulated under the T-REx™ system. The day before assay, cells were trypsinized and plated in 384-well tissue culture plates. The next day, compound dilutions in DMSO/media containing doxycycline were added to the wells and incubated at 37° C., 5% CO2.

[3] = system: PD1-ss+10aa/Gaussia Luciferase; assay: Dox induced PD1-ss-Gluc assay
Procedure, shortened: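 Stable Flp-In 293 T-REx line expressing doxycycline-inducible Gaussia luciferase fused to the PD1 signal sequence plus 10 amino acids. Cells plated the day before, then exposed to compound dilutions in DMSO/media containing doxycycline at 37 °C, 5% CO2.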

HER3ss-Gluc = assay: HER3ss assay
Procedure: The mature domain of secreted luciferase from Gaussia princeps (GLuc) was cloned into pcDNA5/FRT/TO. The signal sequence plus four amino acids of the mature domain from HER3 ([…]) (SEQ ID NO:8) were cloned upstream of GLuc mature domain and used in transient transfection experiment. HEK-293T T-rex cells were cultured in Dulbecco's modified Eagle's medium with 10% FBS at 5% CO2. Cells were plated 1×10e6 cells per well in a 6-well plate and incubated for 6 h. Cells were transiently transfected with HER3ss-Gluc using Lipofectamine 2000 (Invitrogen). After overnight incubation, transfected cells were replated in a clear-bottomed, black 96-well plate at a density of 20,000 cells per well. Six hours after plating, the cells were treated with doxycycline (1 μg/ml) and increasing concentrations of the indicated compounds for 24 h. Secreted luciferase in the conditioned media was quantified by luminescence using the BioLux Gaussia Luciferase Assay Kit (New England Biolabs, Ipswich, Mass., USA) and a SpectraMax M5 plate reader (Molecular Devices).

[4] = system: TNFα-FL/Gaussia Luciferase; assay: Dox induced TNFα-FL-Gluc assay
Procedure, shortened: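 Stable Flp-In 293 T-REx line expressing full-length TNFα (aa 1-233) fused at its C-terminus to Gaussia luciferase under doxycycline-inducible control. Cells plated the day before, then given compound dilutions in DMSO/media containing doxycycline and incubated at 37 °C, 5% CO2.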

[5] = system: U266B1 multiple myeloma cell line; assay: U266 assay (cell viability, Celltiter-Glo); details: Homo sapiens, U-266
Procedure: Cells were plated in 384-well tissue culture plates and treated with compound dilutions in DMSO/media. Plates were incubated at 37° C., 5% CO2 for 48 hours. After 48 hours, Celltiter-Glo@ (Promega) was added to each well and luciferase signal was quantified using Tecan Infinite M1000 Pro for cell viability determination.

[6] = NCI-H929, 48 hours, cell viability
[7] = Flp-In 293 T-REx cells, 24 hours; read-out: Prl IC50
[8] = Flp-In 293 T-REx cells, doxycycline, 24 hours; read-out: PD1ss Gluc IC50
[9] = HEK-293T T-rex cells, transient transfection, doxycycline, 24 h; read-out: HER3 ss IC50
[10] = Flp-In 293 T-REx cells, doxycycline, 24 hours; read-out: TNFa FL Gluc IC50
[11] = I.A.; read-out: PD1ss Gluc IC50
[12] = I.A.; read-out: TNFa FL Gluc IC50

SMILES	EC50 [1, 6]	IC50 [2, 7]	IC50 [3, 8]	IC50 (HER3ss-Gluc; [9])	IC50 [4, 10]	EC50 ([5]; I.A.)	IC50 ([2]; I.A.; read-out: Prl IC50)	IC50 [3, 11]	IC50 (HER3ss-Gluc; I.A.; read-out: HER3 ss IC50)	IC50 [4, 12]	EC50 ([5]; 48 hours, cell viability)	EC50 ([1]; NCI-H929, 48 h)	IC50 ([2]; read-out: Prl IC50; Flp-In 293 T-REx cells, 24 hours)	IC50 ([3]; read-out: PD1ss Gluc IC50; Flp-In 293 T-REx cells, doxycycline, 24 hours)	IC50 (HER3ss-Gluc; read-out: HER3 ss IC50; HEK-293T T-rex cells, transient transfection, doxycycline, 24 h)	IC50 ([4]; read-out: TNFa FL Gluc IC50; Flp-In 293 T-REx cells, doxycycline, 24 hours)	EC50 ([1]; NCI-H929, I.A.)
CC#CCn1cc(C[C@H]2C(=O)N[C@@H](CC(C)C)C(=O)N(C)[C@@H](C)C(=O)O[C@H](CCC#N)C(=O)N[C@@H](CC(F)(F)F)C(=O)N(C)[C@@H](CC(C)C)C(=O)N[C@@H](CC(F)(F)F)C(=O)N2C)c2ccccc21 [C-91] (cyclo(L[NMeA][Butanoyl(2R-oxy,4-CN)][Abu(4,4,4-F3)][NMeL][Abu(4,4,4-F3)][X14]))	4880 nM	9800 nM	274 nM	124 nM	986 nM	> 25000 nM											
CC(C)C[C@@H]1NC(=O)[C@H](Cc2cn(Cc3ccc(Cl)cc3)c3ccccc23)N(C)C(=O)[C@H](CC(F)(F)F)NC(=O)[C@H](CC(C)C)N(C)C(=O)[C@H](CC(F)(F)F)NC(=O)[C@@H](CCC#N)OC(=O)[C@H](C)N(C)C1=O [C-84] (cyclo(L[NMeA][Butanoyl(2R-oxy,4-CN)][Abu(4,4,4-F3)][NMeL][Abu(4,4,4-F3)][X19]))	608 nM	802 nM	37 nM	72 nM	77 nM	> 25000 nM											
CC(C)C[C@@H]1NC(=O)[C@H](Cc2csc3c(Cl)cccc23)N(C)C(=O)[C@H](CC(C)C)NC(=O)[C@H](CC(C)C)N(C)C(=O)[C@H](CC(F)(F)F)NC(=O)[C@@H](CCC#N)OC(=O)[C@H](C)N(C)C1=O [C-94] (cyclo(L[NMeA][Butanoyl(2R-oxy,4-CN)][Abu(4,4,4-F3)][NMeL]L[X16]))	6050 nM	19300 nM	425 nM	74 nM	1240 nM	> 25000 nM											
CC(C)C[C@@H]1NC(=O)[C@H](Cc2csc3ccc(Cl)cc23)N(C)C(=O)[C@H](CC2=CCCC2)NC(=O)[C@H](CC(C)C)N(C)C(=O)[C@H](CC(F)(F)F)NC(=O)[C@@H](CCC#N)OC(=O)[C@H](C)N(C)C1=O [C-96] (cyclo(L[NMeA][Butanoyl(2R-oxy,4-CN)][Abu(4,4,4-F3)][NMeL][X12][NMeAla(5-Cl-benzothien-3-yl)]))	8400 nM		472 nM	6 nM	3840 nM	> 25000 nM	> 25000 nM										
CC(C)C[C@@H]1NC(=O)[C@H](Cc2csc3ccc(Cl)cc23)N(C)C(=O)[C@H](CC(C)C)NC(=O)[C@H](CC2=CCCCC2)N(C)C(=O)[C@H](CC(F)(F)F)NC(=O)[C@@H](CCC#N)OC(=O)[C@H](C)N(C)C1=O [C-80] (cyclo(L[NMeA][Butanoyl(2R-oxy,4-CN)][Abu(4,4,4-F3)][X23]L[NMeAla(5-Cl-benzothien-3-yl)]))	3440 nM	23700 nM						> 25000 nM	> 25000 nM	> 25000 nM	5680 nM						
CC(C)C[C@@H]1NC(=O)[C@H](Cc2csc3ccc(Cl)cc23)N(C)C(=O)[C@H](CC(F)(F)F)NC(=O)[C@H](CC(C)C)N(C)C(=O)[C@H](CC(C)C)NC(=O)[C@@H](CCC#N)OC(=O)[C@H](C)N(C)C1=O [C-92] (cyclo(L[NMeA][Butanoyl(2R-oxy,4-CN)]L[NMeL][Abu(4,4,4-F3)][NMeAla(5-Cl-benzothien-3-yl)]))	9880 nM		813 nM	98 nM	3860 nM	> 25000 nM	> 25000 nM										
CC(C)C[C@@H]1NC(=O)[C@H](Cc2cn(Cc3ccc(Cl)cc3)c3ccccc23)N(C)C(=O)[C@H](CC(C)C)NC(=O)[C@H](CC(C)C)N(C)C(=O)[C@H](CC(F)(F)F)NC(=O)[C@@H](CCC#N)OC(=O)[C@H](C)N(C)C1=O [C-95] (cyclo(L[NMeA][Butanoyl(2R-oxy,4-CN)][Abu(4,4,4-F3)][NMeL]L[X19]))						> 25000 nM						588 nM	391 nM	19 nM	35 nM	93 nM	
CC(C)C[C@@H]1NC(=O)[C@H](Cc2csc3ccc(Cl)cc23)N(C)C(=O)[C@H](CC2=CCCCC2)NC(=O)[C@H](CC(C)C)N(C)C(=O)[C@H](CC2=CCCCC2)NC(=O)[C@@H](CCC#N)OC(=O)[C@H](C)N(C)C1=O [C-87] (cyclo(L[NMeA][Butanoyl(2R-oxy,4-CN)][Ala(1-cyclohexenyl)][NMeL][Ala(1-cyclohexenyl)][NMeAla(5-Cl-benzothien-3-yl)]))				11 nM		> 25000 nM	> 25000 nM	> 25000 nM		> 25000 nM							> 25000 nM
CCn1cc(C[C@H]2C(=O)N[C@@H](CC(C)C)C(=O)N(C)[C@@H](C)C(=O)O[C@H](CCC#N)C(=O)N[C@@H](CC(F)(F)F)C(=O)N(C)[C@@H](CC(C)C)C(=O)N[C@@H](CC(F)(F)F)C(=O)N2C)c2ccccc21 [C-79] (cyclo(L[NMeA][Butanoyl(2R-oxy,4-CN)][Abu(4,4,4-F3)][NMeL][Abu(4,4,4-F3)][X15]))	4740 nM		390 nM	112 nM	1490 nM	> 25000 nM	> 25000 nM										
CC(C)C[C@@H]1NC(=O)[C@H](Cc2csc3ccc(Cl)cc23)N(C)C(=O)[C@H](CC2=CCCCC2)NC(=O)[C@H](CC(C)C)N(C)C(=O)[C@H](CC2=CCCC2)NC(=O)[C@@H](CCC#N)OC(=O)[C@H](C)N(C)C1=O [C-85] (cyclo(L[NMeA][Butanoyl(2R-oxy,4-CN)][X12][NMeL][Ala(1-cyclohexenyl)][NMeAla(5-Cl-benzothien-3-yl)]))			1140 nM	7 nM		> 25000 nM	> 25000 nM			> 25000 nM							> 25000 nM
CC(C)C[C@@H]1NC(=O)[C@H](CC(C)C)N(C)C(=O)[C@H](CC(F)(F)F)NC(=O)[C@@H](CCC#N)OC(=O)[C@H](C)N(C)C(=O)[C@H](CC2=CCCC2)NC(=O)[C@H](Cc2csc3ccc(Cl)cc23)N(C)C1=O [C-89] (cyclo(L[NMeAla(5-Cl-benzothien-3-yl)][X12][NMeA][Butanoyl(2R-oxy,4-CN)][Abu(4,4,4-F3)][NMeL]))	3730 nM		172 nM	33 nM	879 nM	> 25000 nM	> 25000 nM										
